How the values were obtained:
[1] = biological target: T1, Muscarinic acetylcholine receptor M5 (Homo sapiens) (UniProt P08912); experiment: Amplification of transfected NIH3T3 cells was measured in Muscarinic acetylcholine receptor M5 required to produce half maximal effect; assay type: functional, cell-based
T1 sequence (whole entry): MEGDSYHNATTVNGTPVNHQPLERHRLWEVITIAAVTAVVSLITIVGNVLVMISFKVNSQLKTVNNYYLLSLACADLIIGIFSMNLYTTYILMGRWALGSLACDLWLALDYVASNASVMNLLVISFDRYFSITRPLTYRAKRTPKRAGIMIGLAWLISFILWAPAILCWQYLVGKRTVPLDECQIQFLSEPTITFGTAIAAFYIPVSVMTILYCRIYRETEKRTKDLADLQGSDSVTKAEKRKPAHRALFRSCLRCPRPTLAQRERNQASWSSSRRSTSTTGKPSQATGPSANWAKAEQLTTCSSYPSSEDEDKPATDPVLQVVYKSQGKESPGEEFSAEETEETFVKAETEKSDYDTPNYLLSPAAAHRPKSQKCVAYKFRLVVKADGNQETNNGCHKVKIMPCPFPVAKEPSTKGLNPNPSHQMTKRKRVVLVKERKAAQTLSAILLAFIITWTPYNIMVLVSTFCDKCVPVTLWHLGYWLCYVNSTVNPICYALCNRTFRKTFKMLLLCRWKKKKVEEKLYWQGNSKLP

[2] = biological target: T2, Muscarinic acetylcholine receptor M1 (Homo sapiens) (UniProt P11229); conditions: CHO
T2 sequence (whole entry): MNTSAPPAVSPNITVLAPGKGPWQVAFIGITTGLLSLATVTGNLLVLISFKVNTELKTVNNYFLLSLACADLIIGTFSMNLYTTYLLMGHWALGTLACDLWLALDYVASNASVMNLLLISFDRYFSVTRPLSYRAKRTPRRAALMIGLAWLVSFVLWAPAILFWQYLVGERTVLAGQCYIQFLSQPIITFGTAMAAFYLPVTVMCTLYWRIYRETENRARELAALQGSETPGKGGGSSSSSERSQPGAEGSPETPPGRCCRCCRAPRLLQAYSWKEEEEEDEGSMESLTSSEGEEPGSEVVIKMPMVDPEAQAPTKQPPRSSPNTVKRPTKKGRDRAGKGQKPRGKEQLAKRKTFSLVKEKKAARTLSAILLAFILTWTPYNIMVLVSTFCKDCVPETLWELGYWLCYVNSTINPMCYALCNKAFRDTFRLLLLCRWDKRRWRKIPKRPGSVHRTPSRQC

[3] = biological target: T3, Muscarinic acetylcholine receptor M4 (Homo sapiens) (UniProt P08173); experiment: Maximal response obtained for each drug normalized to effect of carbachol in Muscarinic acetylcholine receptor M4; assay type: functional
T3 sequence (whole entry): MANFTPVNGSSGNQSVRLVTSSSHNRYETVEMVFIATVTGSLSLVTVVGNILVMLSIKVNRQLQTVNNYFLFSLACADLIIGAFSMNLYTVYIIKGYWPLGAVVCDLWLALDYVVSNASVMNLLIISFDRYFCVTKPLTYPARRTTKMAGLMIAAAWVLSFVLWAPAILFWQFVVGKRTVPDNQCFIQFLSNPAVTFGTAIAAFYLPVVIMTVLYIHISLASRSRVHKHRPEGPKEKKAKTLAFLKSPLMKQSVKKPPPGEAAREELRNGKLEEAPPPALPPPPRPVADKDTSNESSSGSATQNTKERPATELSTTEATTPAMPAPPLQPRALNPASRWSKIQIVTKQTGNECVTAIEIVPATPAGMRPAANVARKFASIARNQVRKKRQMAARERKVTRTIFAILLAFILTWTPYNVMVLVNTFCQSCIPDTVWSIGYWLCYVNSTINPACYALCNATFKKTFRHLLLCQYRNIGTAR

[4] = biological target: T1, Muscarinic acetylcholine receptor M5 (Homo sapiens); experiment: Stimulations of inositol phosphate(PI) accumulation in transfected CHO cells in Muscarinic acetylcholine receptor M5 values are the maximal response obtained from the compound tested at 100 uM normalized to the effect of carbachol.; assay type: functional, cell-based
[5] = biological target: Muscarinic acetylcholine receptor M3 (Homo sapiens) (UniProt P20309); experiment: Maximal response obtained for each drug normalized to effect of carbachol in Muscarinic acetylcholine receptor M3; assay type: functional
[6] = biological target: T4, Muscarinic acetylcholine receptor M2 (Homo sapiens) (UniProt P08172); experiment: Maximal response obtained for each drug normalized to effect of carbachol in Muscarinic acetylcholine receptor M2; assay type: functional
T4 sequence (whole entry): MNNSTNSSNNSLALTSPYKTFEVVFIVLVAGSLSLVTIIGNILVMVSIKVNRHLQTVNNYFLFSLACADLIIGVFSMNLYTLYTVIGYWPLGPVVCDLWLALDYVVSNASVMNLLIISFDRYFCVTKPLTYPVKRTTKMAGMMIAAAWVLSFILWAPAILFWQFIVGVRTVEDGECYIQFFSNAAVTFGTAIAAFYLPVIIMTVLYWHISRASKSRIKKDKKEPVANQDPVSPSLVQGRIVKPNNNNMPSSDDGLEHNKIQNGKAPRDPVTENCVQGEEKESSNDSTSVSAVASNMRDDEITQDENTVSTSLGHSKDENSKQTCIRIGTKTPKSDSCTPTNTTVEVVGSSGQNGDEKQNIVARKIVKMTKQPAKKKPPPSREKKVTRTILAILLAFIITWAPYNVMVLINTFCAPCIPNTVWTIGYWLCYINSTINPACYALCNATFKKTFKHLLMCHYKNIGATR

[7] = biological target: T1, Muscarinic acetylcholine receptor M5 (Homo sapiens); experiment: Maximal response obtained for each drug normalized to effect of carbachol in Muscarinic acetylcholine receptor M5; assay type: functional
[8] = biological target: T4, Muscarinic acetylcholine receptor M2 (Homo sapiens); experiment: Amplification of transfected NIH3T3 cells was measured in Muscarinic acetylcholine receptor M2 required to produce half maximal effect; assay type: functional, cell-based
[9] = biological target: Muscarinic acetylcholine receptor M3 (Homo sapiens) (UniProt P20309); experiment: Stimulations of inositol phosphate(PI) accumulation in transfected CHO cells in Muscarinic acetylcholine receptor M3 values are the maximal response obtained from the compound tested at 100 uM normalized to the effect of carbachol.; assay type: functional, cell-based
[10] = biological target: T2, Muscarinic acetylcholine receptor M1 (Homo sapiens); conditions: NIH3T3
Description: Amplification of transfected NIH3T3 cells was measured in Muscarinic acetylcholine receptor M1 required to produce half maximal effect

[11] = biological target: T2, Muscarinic acetylcholine receptor M1 (Homo sapiens); experiment: Maximal response obtained for each drug normalized to effect of carbachol in Muscarinic acetylcholine receptor M1; assay type: functional
[12] = biological target: Muscarinic acetylcholine receptor M3 (Homo sapiens) (UniProt P20309); conditions: NIH3T3
Description: Amplification of transfected NIH3T3 cells was measured in Muscarinic acetylcholine receptor M3 required to produce half maximal effect

[13] = biological target: Muscarinic acetylcholine receptor (Rattus norvegicus) (UniProt P08482+P08483+P08485+P08911+P10980); experiment: Ratio of QNB binding to CMD binding was evaluated; assay type: protein assay
[14] = biological target: T5, Muscarinic acetylcholine receptor M1 (Homo sapiens, UniProt P11229); experiment: biochemical; assay type: cell-based, CHO
T5 sequence (P11229 whole entry): T2 sequence (whole entry)
Description: Binding affinity of [3H]-QNB to CHO cells expressing human Muscarinic acetylcholine receptor M1

[15] = biological target: Muscarinic acetylcholine receptor; experiment: Muscarinic acetylcholine receptor binding assay was conducted using [3H]quinuclidinyl benzilate (QNB) to label antagonist sites in membrane preparations from rat neocortex
[16] = biological target: Muscarinic acetylcholine receptor; experiment: Muscarinic acetylcholine receptor binding assay was conducted using [3H]cis-methyldioxolane (CMD) to label agonist sites in membrane preparations from rat neocortex
[17] = biological target: T6, Muscarinic acetylcholine receptor M2 (Homo sapiens, UniProt P08172); experiment: Binding affinity of [3H]QNB to CHO cells expressing human Muscarinic acetylcholine receptor M2; assay type: cell-based
T6 sequence (P08172 whole entry): T4 sequence (whole entry)

[18] = biological target: T1, Muscarinic acetylcholine receptor M5 (Homo sapiens); experiment: Inositol phosphate(PI) accumulation in CHO cells expressing Muscarinic acetylcholine receptor M5 as maximal response at 100 uM relative to carbachol; assay type: functional, cell-based
[19] = biological target: T2, Muscarinic acetylcholine receptor M1 (Homo sapiens); experiment: Stimulation of inositol phosphate(PI) accumulation in CHO cells expressing Muscarinic acetylcholine receptor M1 as maximal response at 100 uM relative to carbachol; assay type: functional, cell-based
[20] = biological target: Muscarinic acetylcholine receptor M3 (Homo sapiens) (UniProt P20309); experiment: Inositol phosphate(PI) accumulation in CHO cells expressing Muscarinic acetylcholine receptor M3 as maximal response at 100 uM relative to carbachol; assay type: functional, cell-based

Chain of Muscarinic acetylcholine receptor M3 (Homo sapiens) (P20309 whole entry, looked up): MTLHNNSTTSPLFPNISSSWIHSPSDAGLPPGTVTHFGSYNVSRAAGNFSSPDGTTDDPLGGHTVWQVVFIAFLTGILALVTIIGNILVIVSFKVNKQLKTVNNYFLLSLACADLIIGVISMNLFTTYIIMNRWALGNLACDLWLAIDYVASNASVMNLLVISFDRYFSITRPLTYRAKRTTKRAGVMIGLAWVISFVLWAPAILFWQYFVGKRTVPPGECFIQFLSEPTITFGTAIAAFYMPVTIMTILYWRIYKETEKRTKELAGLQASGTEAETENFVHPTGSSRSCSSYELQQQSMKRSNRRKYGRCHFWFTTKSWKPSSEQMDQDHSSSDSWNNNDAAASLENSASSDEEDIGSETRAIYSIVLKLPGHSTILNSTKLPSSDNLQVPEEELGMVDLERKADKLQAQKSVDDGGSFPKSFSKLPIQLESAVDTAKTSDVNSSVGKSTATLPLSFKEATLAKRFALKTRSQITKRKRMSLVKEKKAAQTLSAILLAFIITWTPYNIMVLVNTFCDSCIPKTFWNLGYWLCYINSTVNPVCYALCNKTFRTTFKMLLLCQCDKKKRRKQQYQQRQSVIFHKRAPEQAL

SMILES	Ratio [13]	IC50 [14]	IC50 [15]	IC50 [16]	IC50 [17]	CCh [19]	further results
COc1cccc(C#CCO/N=C2\CN3CC[C@H]2C3)c1							ED50 [1]: 2.59 µM; ED50 [2]: 3.7 µM; CCh [3]: 65%; Stimulation [4]: 1.9%; CCh [5]: 57%; CCh [6]: 33%; CCh [7]: 60%; ED50 [8]: 1.53 µM; Stimulation [9]: 5.2%; ED50 [10]: 1.6 µM; CCh [11]: 51%; ED50 [12]: 4.57 µM
C#C/C(C)=C/CO/N=C1\CN2CCC1C2 (stereo not given)	480	2.59 µM	2.06 µM	0.00429 µM	6.01 µM		
Clc1ccccc1C#CCO/N=C1\CN2CCC1C2 (stereo not given)	107	1.12 µM			4.01 µM	32%	CCh [18]: 4%; CCh [20]: 6%
Clc1ccc(C#CCO/N=C2\CN3CCC2C3)cc1 (stereo not given)	119	4.01 µM			24.7 µM	48%	CCh [18]: 0%
C=CCO/N=C1\CN2CCC1C2 (stereo not given)	91.7	4.05 µM	4.77 µM	0.052 µM	10.8 µM		
C#CCO/N=C1\CN2CCC1C2 (stereo not given)	1240	4.89 µM	4.35 µM	0.0035 µM	6.03 µM	95%	CCh [18]: 42%
C/C(C#Cc1ccccc1)=C\CO/N=C1\CN2CCC1C2 (stereo not given)	7.93	1.09 µM			7.93 µM		
C(#Cc1cccs1)CO/N=C1\CN2CCC1C2 (stereo not given)	173	1.62 µM	2.33 µM	0.0135 µM	8.9 µM	86%	
O=[N+]([O-])c1cccc(C#CCO/N=C2\CN3CCC2C3)c1 (stereo not given)	227	15.1 µM			46.6 µM		
Cc1ccc(C#CCO/N=C2\CN3CCC2C3)cc1 (stereo not given)	124	14.1 µM			38.6 µM		
C#CCC#CCO/N=C1\CN2CCC1C2 (stereo not given)	402	8.83 µM	8.834 µM	0.022 µM	8.07 µM		

Source: ChEMBL document CHEMBL1131286, “Design and synthesis of m1-selective muscarinic agonists: (R)-(-)-(Z)-1-Azabicyclo[2.2.1]heptan-3-one, O-(3-(3'-methoxyphenyl)-2-propynyl)oxime maleate (CI-1017), a functionally m1-selective muscarinic agonist” (J Med Chem, 1998)
